This is an account of results in patent US12622977B2, “Antibody drug conjugate” (CHIA TAI TIANQING PHARMACEUTICAL GROUP CO., LTD., priority 2020, dated 2026).

pEC50, pIC50: −log10 of the molar value.

What all share (type): cell-based
The test system of assay [1] is NCI-N87 Her2++ tumor cells. The experiment in a line: Killing of Her2 positive target cell NCI-N87 with human PBMC effector cells (ADCC, CytoTox96). Particulars: effector-to-target ratio 10:1.
Protocol: The killing effects of the anti-Her2 bispecific antibodies on target cells (NCI-N87 Her2++, source: the Cell Bank of Type Culture Collection Committee of the Chinese Academy of Sciences) were studied using NK cells provided by human PBMCs (peripheral blood mononuclear cells), and the in vitro activity of the anti-Her2 bispecific antibodies was assessed by EC50 value.
The specific procedures are as follows: NCI-N87 cells were adjusted to a cell density of 3×10^5 cells/mL using 1640 medium containing 2% FBS (fetal bovine serum) and seeded in a 96-well cell culture plate (eppendorf, Cat. No. 0030730199) at 50 μL per well. […] Human PBMCs were adjusted to a cell density of 1.5×10^6 cells/mL using medium for experiment and added at 100 μL per well. An administration group (target cell+effector cell+antibody or control drug), a target cell group (NCI-N87 cell), an effector cell group (human PBMC), a target cell+effector cell group, a blank control group (medium) and a lysis solution control group, and a target cell maximum release group (target cell+lysis solution) were set, with the effector-to-target cell ratio being 10:1. […] After 45 min, the cell lysis rates were measured using a CytoTox96® nonradioactive cytotoxicity assay (Promega, G1780). […]
The subject of assay [2] is JIMT-1 tumor cells. The experiment in a line: Killing of trastuzumab-resistant cell JIMT-1 with human PBMC effector cells (ADCC, CytoTox96). The settings on record: effector-to-target ratio 20:1.
Protocol: The killing effects of the anti-Her2 bispecific antibodies on target cells (JIMT-1, source: AddexBio, Cat. No. C0006005) were studied using NK cells provided by human PBMCs (peripheral blood mononuclear cells), and the in vitro activity of the anti-Her2 bispecific antibodies was assessed by EC50 value.
The specific procedures are as follows: JIMT-1 cells were adjusted to a cell density of 3×10^5 cells/mL using 1640 medium containing 2% FBS (fetal bovine serum) and seeded in a 96-well cell culture plate (eppendorf, Cat. No. 0030730199) at 50 μL per well. […] Human PBMCs were adjusted to a cell density of 1.5×10^6 cells/mL using medium for experiment and added at 100 μL per well. An administration group (target cell+effector cell+antibody or control drug), a target cell group (JIMT-1BT474 cell), an effector cell group (human PBMC), a target cell+effector cell group, a blank control group (medium) and a lysis solution control group, and a target cell maximum release group (target cell+lysis solution) were set, with the effector-to-target cell ratio being 20:1. 45 min prior to the assay, 20 μL/well of lysis solution (Promega, Cat. No. G182A) was added to the target cell maximum release group and the lysis solution control group. After 45 min, the cell lysis rates were measured using a CytoTox96® nonradioactive cytotoxicity assay (Promega, G1780). […]
The subject of assay [3] is HER2 positive tumor cells NCI-N87. The experiment in a line: Proliferation inhibition of NCI-N87 cells by DXD and DDDXD (CCK-8). The settings on record: Homo sapiens, NCI-N87, 120 h. Here is the method: DXD and DDDXD were pre-diluted to 140,000 ng/mL in culture medium and labeled as S1, and then five-fold serially diluted to obtain their corresponding reference samples S1-S9; the final drug concentration range was 35000 ng/mL to 0.0896 ng/mL with 9 concentrations in total. HER2 positive tumor cells NCI-N87 in the logarithmic growth phase were collected, adjusted to a density of 1×10^5 cells/mL, and plated at 100 μL per well, and a blank well without any cells was set as a control. The above serially diluted two samples were added at 50 μL per well. The plate was incubated in an incubator at 37° C. with 5% CO2 for 5 days. The culture medium was discarded, and CCK-8 (Dojindo, Japan, Cat. No. CK04) working solution was added at 100 μL per well. The plate was incubated for 4-5 h for color developing and placed in a microplate reader (manufacturer: Thermo, Model: VarioskanFlash). The absorbance values at a wavelength of 450 nm were read and recorded using a reference wavelength of 630 nm. The proliferation inhibition against the tumor cells were calculated.

On to T-DM1, for which the pEC50 (commonly −log10 of the EC50, conventionally taken in molar units) is 10.13 in assay [1] and 10.08 in assay [2].
Take `CC[C@@]1(O)C(=O)OCc2c1cc1n(c2=O)Cc2c-1nc1cc(F)c(C)c3c1c2[C@@H](NC(=O)CO)CC3` [DXD]: in assay [3], the negative logarithm of the IC50 (pIC50) (usually the IC50 on a negative log10 scale, so that one unit is a factor of ten) is 8.35.
